Assay results reported in patent US20040014768A1, “Chromenone derivatives and their use for treating diseases in conjunction with 5-hta1receptors and/or dopamine d2 receptors” (priority 2000, published 2004).

Row | SMILES | melting point
1 | COc1cc2oc(=O)c(C)c(C)c2cc1OCCN1CCN(c2cccc3[nH]ccc23)CC1.Cl.Cl | 231 to 237 °C
2 | COc1cc2oc(=O)c(C)c(C)c2cc1OCCN1CCN(c2cccc3[nH]ccc23)CC1 [Example 3, 6-{2-[4-(1H-indol-4-yl)piperazin-1-yl]ethoxy}-7-methoxy-3,4-dimethylchromen-2-one] | 201 to 202 °C
3 | COc1cc2oc(=O)c(C)c(C)c2cc1OCCN1CCN(c2cccc3cccnc23)CC1 [Example 4, 7-methoxy-3,4-dimethyl-6-[2-(4-quinolin-8-ylpiperazin-1-yl)ethoxy]chromen-2-one] | 164 to 165 °C
4 | COc1cc2oc(=O)c(C)c(C)c2cc1OCCN1CCN(c2cccc3ccc(C)nc23)CC1 [Example 4, 7-methoxy-3,4-dimethyl-6-{2-[4-(2-methylquinolin-8-yl)piperazin-1-yl]-ethoxy}chromen-2-one] | 168 to 170 °C
5 | COc1cc2oc(=O)c(C)c(C)c2cc1OCCCN1CCN(c2cccc3[nH]ccc23)CC1 [Example 5, 6-{3-[4-(1H-indol-4-yl)piperazin-1-yl]propoxy}-7-methoxy-3,4-dimethyl-chromen-2-one] | 193 to 195 °C
6 | COc1cc2oc(=O)c(C)c(C)c2cc1OCCCN1CCN(c2cccc3cccnc23)CC1 [Example 5, 7-methoxy-3,4-dimethyl-6-[3-(4-quinolin-8-ylpiperazin-1-yl)propoxy]-chromen-2-one] | 225 to 228 °C
